Our source for the EC50 values is patent US9409884B2 (Rigel Pharmaceuticals, Inc., priority 2012, dated 2016).

This experiment addresses AMPK. Briefly: AMPK activation, enzyme-linked immunosorbent assay. It is filed as biochemical. To be noted: Table 13, compounds of Table 6. The method in brief:
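AMPK activation by test compounds was measured by enzyme-linked immunosorbent assay.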
A word on the EC50: it is the concentration giving half of the maximal effect. In the case of `N#Cc1ccc(CN2CCC(NC(=O)c3cc4cc(NC(=O)C5CCN(Cc6cnn(-c7ccccn7)c6)CC5)ccc4o3)CC2)cc1` [Compound 6-41, N-(2-(1-(4-cyanobenzyl)piperidin-4-ylcarbamoyl)benzofuran-5-yl)-1-((1-(pyridin-2-yl)-1H-pyrazol-4-yl)methyl)piperidine-4-carboxamide], the EC50 was in the range of 1 to 10 µM.

The compound `N#Cc1ccc(CN2CCC(NC(=O)c3cc4cc(NC(=O)C5CCN(Cc6cnn(-c7ccc(C#N)cc7)c6)CC5)ccc4o3)CC2)cc1` [Compound 6-42, N-(2-(1-(4-cyanobenzyl)piperidin-4-ylcarbamoyl)benzofuran-5-yl)-1-((1-(4-cyanophenyl)-1H-pyrazol-4-yl)methyl)piperidine-4-carboxamide] registered an EC50 of 1 to 10 µM.

Compound `N#Cc1ccc(CN2CCC(NC(=O)c3cc4cc(NC(=O)C5CCN(Cc6ccc(F)c(F)c6)CC5)ccc4o3)CC2)cc1` [Compound 6-43, N-(2-(1-(4-cyanobenzyl)piperidin-4-ylcarbamoyl)benzofuran-5-yl)-1-(3,4-difluorobenzyl)piperidine-4-carboxamide] gave an EC50 of 0.1 to 1 µM.

Compound `N#Cc1ccc(CN2CCC(NC(=O)c3cc4cc(NC(=O)C5CCN(Cc6ccc(OC(F)(F)F)cc6)CC5)ccc4o3)CC2)cc1` [Compound 6-46, N-(2-(1-(4-cyanobenzyl)piperidin-4-ylcarbamoyl)benzofuran-5-yl)-1-(4-(trifluoromethoxy)benzyl) piperidine-4-carboxamide] showed an EC50 of 0.1 to 1 µM.

`N#Cc1ccc(CN2CCC(NC(=O)c3cc4cc(NC(=O)C5CCN(Cc6ccc(C#N)c(F)c6)CC5)ccc4o3)CC2)cc1` [Compound 6-48, 1-(4-cyano-3-fluorobenzyl)-N-(2-(1-(4-cyanobenzyl)piperidin-4-ylcarbamoyl)benzofuran-5-yl)piperidine-4-carboxamide] showed a concentration giving a half-maximal response (EC50) of 0.1 to 1 µM.

On to `N#Cc1ccc(CN2CCC(NC(=O)c3cc4cc(NC(=O)C5CCN(Cc6ccc(C#N)cc6)CC5)ccc4o3)CC2)cc1` [Compound 6-49, l-(4-cyanobenzyl)-N-(2-(l-(4-cyanobenzyl)piperidin-4-ylcarbamoyl)benzofiiran-5-yl)piperidine-4-carbox amide], for which the EC50 was in the range of 0.1 to 1 µM.

`N#Cc1ccc(CN2CCC(NC(=O)c3cc4cc(NC(=O)C5CCN(Cc6ccc(C(F)(F)F)cc6)CC5)ccc4o3)CC2)cc1` [Compound 6-50, N-(2-(1-(4-cyanobenzyl)piperidin-4-ylcarbamoyl)benzofuran-5-yl)-1-(4-(trifluoromethyl)benzyl) piperidine-4-carboxamide] yielded an EC50 of 0.1 to 1 µM.

With `N#Cc1ccc(CN2CCC(NC(=O)c3cc4cc(NC(=O)Cc5ccc(C(F)(F)F)cc5)ccc4o3)CC2)cc1` [Compound 6-54, N-(1-(4-cyanobenzyl)piperidin-4-yl)-5-(2-(4-(trifluoromethyl)phenyl)acetamido)benzofuran-2-carboxamide], the EC50 fell in the range of 0.1 to 1 µM.

On to `Cc1nnsc1C(=O)Nc1ccc2oc(C(=O)NC3CCN(Cc4ccc(C#N)cc4)CC3)cc2c1` [Compound 6-56, N-(2-(1-(4-cyanobenzyl)piperidin-4-ylcarbamoyl)benzofuran-5-yl)-4-methyl-1,2,3-thiadiazole-5-carboxamide], for which the EC50 was 1 to 10 µM.

As for `N#Cc1ccc(CN2CCC(NC(=O)c3cc4cc(NC(=O)c5ccc(C#N)cc5)ccc4o3)CC2)cc1` [Compound 6-57], the EC50 was 0.1 to 1 µM.

As for `COc1ccc(-n2cc(C(=O)Nc3ccc4oc(C(=O)NC5CCN(Cc6ccc(C#N)cc6)CC5)cc4c3)cn2)cc1` [Compound 6-59, N-(2-(1-(4-cyanobenzyl)piperidin-4-ylcarbamoyl)benzofuran-5-yl)-1-(4-methoxyphenyl)-1H-pyrazole-4-carboxamide], the EC50 fell in the range of 0.1 to 1 µM.

With `N#Cc1ccc(CN2CCC(NC(=O)c3cc4cc(NC(=O)c5ccc(-c6nnc[nH]6)cc5)ccc4o3)CC2)cc1` [Compound 6-60, 5-(4-(4H-1,2,4-triazol-3-yl)benzamido)-N-(1-(4-cyanobenzyl)piperidin-4-yl)benzofuran-2-carboxamide], the EC50 fell in the range of 1 to 10 µM.

`Cc1cc(C(=O)Nc2ccc3oc(C(=O)NC4CCN(Cc5ccc(C#N)cc5)CC4)cc3c2)no1` [Compound 6-61, N-(2-(1-(4-cyanobenzyl)piperidin-4-ylcarbamoyl)benzofuran-5-yl)-5-methylisoxazole-3-carboxamide]: the EC50 is 0.1 to 1 µM.

On to `N#Cc1ccc(CN2CCC(NC(=O)c3cc4cc(NC(=O)c5ccc(Oc6ccc(F)cc6)nc5)ccc4o3)CC2)cc1` [Compound 6-64, N-(2-(1-(4-cyanobenzyl)piperidin-4-ylcarbamoyl)benzofuran-5-yl)-6-(4-fluorophenoxy)nicotinamide], for which the EC50 was in the range of 0.1 to 1 µM.

For the compound `N#Cc1ccc(CN2CCC(NC(=O)c3cc4cc(NC(=O)c5ccc(-n6cccn6)cc5)ccc4o3)CC2)cc1` [Compound 6-65, 5-(4-(1H-pyrazol-1-yl)benzamido)-N-(1-(4-cyanobenzyl)piperidin-4-yl)benzofuran-2-carboxamide], the EC50 is 0.1 to 1 µM.

On to `N#Cc1ccc(CN2CCC(NC(=O)c3cc4cc(NC(=O)c5cnn(-c6ccc(F)cc6)c5)ccc4o3)CC2)cc1` [Compound 6-66, N-(2-(1-(4-cyanobenzyl)piperidin-4-ylcarbamoyl)benzofuran-5-yl)-1-(4-fluorophenyl)-1H-pyrazole-4-carboxamide], for which the concentration giving a half-maximal response (EC50) was 0.1 to 1 µM.

`N#Cc1ccc(CC(=O)Nc2ccc3oc(C(=O)NC4CCN(Cc5ccc(C#N)cc5)CC4)cc3c2)cc1` [Compound 6-67, N-(1-(4-cyanobenzyl)piperidin-4-yl)-5-(2-(4-cyanophenyl)acetamido) benzofuran-2-carboxamide] returned an EC50 of 1 to 10 µM.

As for `N#Cc1ccc(CN2CCC(NC(=O)c3cc4cc(NC(=O)c5ccc(N6CCCC6)cc5)ccc4o3)CC2)cc1` [Compound 6-68, N-(1-(4-cyanobenzyl)piperidin-4-yl)-5-(4-(pyrrolidin-1-yl)benzamido)benzofuran-2-carboxamide], the EC50 was in the range of 0.1 to 1 µM.

On to `N#Cc1ccc(CN2CCC(NC(=O)c3cc4cc(NC(=O)[C@H]5CC[C@@H](Oc6ccc(C#N)cc6)CC5)ccc4o3)CC2)cc1` [Compound 6-69, N-(1-(4-cyanobenzyl)piperidin-4-yl)-5-((1s,4s)-4-(4-cyanophenoxy)cyclohexanecarboxamido) benzofuran-2-carboxamide], for which the EC50 was less than 0.1 µM.

The compound `N#Cc1ccc(CN2CCC(NC(=O)c3cc4cc(NC(=O)C5CCN(c6ccc(C#N)cn6)CC5)ccc4o3)CC2)cc1` [Compound 6-70, N-(2-(1-(4-cyanobenzyl)piperidin-4-ylcarbamoyl)benzofuran-5-yl)-1-(5-cyanopyridin-2-yl)piperidine-4-carboxamide] returned an EC50 of less than 0.1 µM.

`N#Cc1ccc(CN2CCC(NC(=O)c3cc4cc(NC(=O)c5ccc(Oc6ccc(C#N)cn6)cc5)ccc4o3)CC2)cc1` [Compound 6-71, N-(1-(4-cyanobenzyl)piperidin-4-yl)-5-(4-(5-cyanopyridin-2-yloxy)benzamido)benzofuran-2-carboxamide]: the EC50 lay within 0.1 to 1 µM.

`N#Cc1ccc(CN2CCC(NC(=O)c3cc4cc(NC(=O)c5cnn(Cc6ccc(C(F)(F)F)cc6)c5)ccc4o3)CC2)cc1` [Compound 6-72, N-(2-(1-(4-cyanobenzyl)piperidin-4-ylcarbamoyl)benzofuran-5-yl)-1-(4-(trifluoromethyl)benzyl)-1H-pyrazole-4-carboxamide] had an EC50 of 1 to 10 µM.
